# What was measured:
# ISC-enriched organoids [1] = assay: Primary screen, 384-well 2.5-D organoid differentiation (ENR+CD, 6 days): basal lysozyme secretion (LYZ.NS); format: cell-based, murine; conditions: for Dose.FC.LYZ.NS: FC vs plate median; for SSMD.LYZ.NS: strictly standardized mean difference; for Dose.FC.LYZ.NS (log 2 fold change, basal lysozyme secretion) / Dose.FC.LYZ.NS (log 2 fold change): vs plate median
# Excerpt: (§1) High-throughput screening.
# ISC-enriched organoids [2] = assay: Primary screen, 384-well 2.5-D organoid differentiation (ENR+CD, 6 days): carbachol-induced lysozyme secretion (LYZ.S); format: cell-based, murine; conditions: for Dose.FC.LYZ.S: FC vs plate median; for Z.LYZ.S: standard z score; for SSMD.LYZ.S: strictly standardized mean difference; for Dose.FC.LYZ.S (log 2 fold change, carbachol-induced lysozyme secretion) / Dose.FC.LYZ.S (log 2 fold change): vs plate median
# Excerpt: as §1
# ISC-enriched organoids [3] = assay: Primary screen, 384-well 2.5-D organoid differentiation (ENR+CD, 6 days, Target Selective Inhibitor Library, vs whole-plate median): ATP (CellTiter-Glo 3D, CTG); conditions: for Dose.FC.CTG: FC vs plate median; for SSMD.CTG: strictly standardized mean difference; for Dose.FC.CTG (log 2 fold change, ATP) / Dose.FC.CTG (log 2 fold change): vs plate median
# [4] = Dose 0.08 uM, primary screen, standard z score
# [5] = Dose 0.40 uM, primary screen, standard z score
# [6] = Dose 2.00 uM, primary screen, standard z score
# [7] = Dose 10.00 uM, primary screen, standard z score
# [8] = primary screen, 1st of the 4 dose lines of the treatment (dose not given)
# [9] = primary screen, 2nd of the 4 dose lines of the treatment (dose not given)
# [10] = primary screen, 3rd of the 4 dose lines of the treatment (dose not given)
# [11] = primary screen, 4th of the 4 dose lines of the treatment (dose not given)
# [12] = Dose 0.08 uM, standard z score of FC
# [13] = Dose 0.40 uM, standard z score of FC
# [14] = Dose 2.00 uM, standard z score of FC
# [15] = Dose 10.00 uM, standard z score of FC
molecule,measurement,setting,value
Nc1cccc2c1CN(C1CCC(=O)NC1=O)C2=O (stereo not drawn) [Lenalidomide (CC-5013)],Dose.FC.LYZ.NS,"ISC-enriched organoids [1]; Dose 0.08 uM, primary screen",0.147 log 2 fold change
same,Z.LYZ.NS,ISC-enriched organoids [1]; [4],1.283
same,Dose.FC.LYZ.NS,"ISC-enriched organoids [1]; Dose 0.40 uM, primary screen",0.099 log 2 fold change
same,Z.LYZ.NS,ISC-enriched organoids [1]; [5],0.863
same,Dose.FC.LYZ.NS,"ISC-enriched organoids [1]; Dose 2.00 uM, primary screen",0.071 log 2 fold change
same,Z.LYZ.NS,ISC-enriched organoids [1]; [6],0.615
same,Dose.FC.LYZ.NS,"ISC-enriched organoids [1]; Dose 10.00 uM, primary screen",−0.041 log 2 fold change
same,Z.LYZ.NS,ISC-enriched organoids [1]; [7],−0.360
same,SSMD.LYZ.NS,ISC-enriched organoids [1]; [8],1.215
same,SSMD.LYZ.NS,ISC-enriched organoids [1]; [9],0.674
same,SSMD.LYZ.NS,ISC-enriched organoids [1]; [10],0.472
same,SSMD.LYZ.NS,ISC-enriched organoids [1]; [11],−0.318
same,Dose.FC.LYZ.S,"ISC-enriched organoids [2]; Dose 0.08 uM, primary screen",0.099 log 2 fold change
same,Dose.FC.LYZ.S,"ISC-enriched organoids [2]; Dose 0.40 uM, primary screen",0.176 log 2 fold change
same,Dose.FC.LYZ.S,"ISC-enriched organoids [2]; Dose 2.00 uM, primary screen",0.025 log 2 fold change
same,Dose.FC.LYZ.S,"ISC-enriched organoids [2]; Dose 10.00 uM, primary screen",−0.045 log 2 fold change
same,Z.LYZ.S,ISC-enriched organoids [2]; [8],0.639
same,Z.LYZ.S,ISC-enriched organoids [2]; [9],1.137
same,Z.LYZ.S,ISC-enriched organoids [2]; [10],0.162
same,Z.LYZ.S,ISC-enriched organoids [2]; [11],−0.290
same,SSMD.LYZ.S,ISC-enriched organoids [2]; [8],0.593
same,SSMD.LYZ.S,ISC-enriched organoids [2]; [9],0.873
same,SSMD.LYZ.S,ISC-enriched organoids [2]; [10],0.193
same,SSMD.LYZ.S,ISC-enriched organoids [2]; [11],−0.298
same,Dose.FC.CTG,"ISC-enriched organoids [3]; Dose 0.08 uM, primary screen",0.046 log 2 fold change
same,Z.CTG,ISC-enriched organoids [3]; [4],0.110
same,Dose.FC.CTG,"ISC-enriched organoids [3]; Dose 0.40 uM, primary screen",−0.016 log 2 fold change
same,Z.CTG,ISC-enriched organoids [3]; [5],−0.037
same,Dose.FC.CTG,"ISC-enriched organoids [3]; Dose 2.00 uM, primary screen",−0.250 log 2 fold change
same,Z.CTG,ISC-enriched organoids [3]; [6],−0.596
same,Dose.FC.CTG,"ISC-enriched organoids [3]; Dose 10.00 uM, primary screen",−0.316 log 2 fold change
same,Z.CTG,ISC-enriched organoids [3]; [7],−0.754
same,SSMD.CTG,ISC-enriched organoids [3]; [8],0.169
same,SSMD.CTG,ISC-enriched organoids [3]; [9],−0.049
same,SSMD.CTG,ISC-enriched organoids [3]; [10],−0.710
same,SSMD.CTG,ISC-enriched organoids [3]; [11],−0.802
CCCCNc1ncc(-c2ccc(CN3CCOCC3)cn2)c(NC2CCC(O)CC2)n1 (stereo not drawn) [UNC2250],Z.LYZ.NS (standard z score),ISC-enriched organoids [1]; dose 0.08 uM,1.005
same,"Dose.FC.LYZ.NS (log 2 fold change, basal lysozyme secretion)",ISC-enriched organoids [1]; dose 0.08 uM,0.115
same,Z.LYZ.NS (standard z score),ISC-enriched organoids [1]; dose 0.40 uM,0.587
same,"Dose.FC.LYZ.NS (log 2 fold change, basal lysozyme secretion)",ISC-enriched organoids [1]; dose 0.40 uM,0.067
same,Z.LYZ.NS (standard z score),ISC-enriched organoids [1]; dose 2.00 uM,0.744
same,"Dose.FC.LYZ.NS (log 2 fold change, basal lysozyme secretion)",ISC-enriched organoids [1]; dose 2.00 uM,0.085
same,Z.LYZ.NS (standard z score),ISC-enriched organoids [1]; dose 10.00 uM,−1.336
same,"Dose.FC.LYZ.NS (log 2 fold change, basal lysozyme secretion)",ISC-enriched organoids [1]; dose 10.00 uM,−0.153
same,"Dose.FC.LYZ.S (log 2 fold change, carbachol-induced lysozyme secretion)",ISC-enriched organoids [2]; dose 0.08 uM,0.142
same,"Dose.FC.LYZ.S (log 2 fold change, carbachol-induced lysozyme secretion)",ISC-enriched organoids [2]; dose 0.40 uM,0.113
same,"Dose.FC.LYZ.S (log 2 fold change, carbachol-induced lysozyme secretion)",ISC-enriched organoids [2]; dose 2.00 uM,0.134
same,"Dose.FC.LYZ.S (log 2 fold change, carbachol-induced lysozyme secretion)",ISC-enriched organoids [2]; dose 10.00 uM,−0.205
same,Z.CTG (standard z score),ISC-enriched organoids [3]; dose 0.08 uM,0.633
same,"Dose.FC.CTG (log 2 fold change, ATP)",ISC-enriched organoids [3]; dose 0.08 uM,0.265
same,Z.CTG (standard z score),ISC-enriched organoids [3]; dose 0.40 uM,0.667
same,"Dose.FC.CTG (log 2 fold change, ATP)",ISC-enriched organoids [3]; dose 0.40 uM,0.279
same,Z.CTG (standard z score),ISC-enriched organoids [3]; dose 2.00 uM,0.250
same,"Dose.FC.CTG (log 2 fold change, ATP)",ISC-enriched organoids [3]; dose 2.00 uM,0.105
same,Z.CTG (standard z score),ISC-enriched organoids [3]; dose 10.00 uM,−0.153
same,"Dose.FC.CTG (log 2 fold change, ATP)",ISC-enriched organoids [3]; dose 10.00 uM,−0.064
SN-38,Z.LYZ.NS (standard z score),"ISC-enriched organoids [1]; Dose 0.08 uM, primary screen",−2.391
same,Dose.FC.LYZ.NS (log 2 fold change),"ISC-enriched organoids [1]; Dose 0.08 uM, primary screen",−0.275
same,Z.LYZ.NS (standard z score),"ISC-enriched organoids [1]; Dose 0.40 uM, primary screen",−2.505
same,Dose.FC.LYZ.NS (log 2 fold change),"ISC-enriched organoids [1]; Dose 0.40 uM, primary screen",−0.288
same,Z.LYZ.NS (standard z score),"ISC-enriched organoids [1]; Dose 2.00 uM, primary screen",−2.655
same,Dose.FC.LYZ.NS (log 2 fold change),"ISC-enriched organoids [1]; Dose 2.00 uM, primary screen",−0.305
same,Z.LYZ.NS (standard z score),"ISC-enriched organoids [1]; Dose 10.00 uM, primary screen",−2.606
same,Dose.FC.LYZ.NS (log 2 fold change),"ISC-enriched organoids [1]; Dose 10.00 uM, primary screen",−0.299
same,Dose.FC.LYZ.S (log 2 fold change),"ISC-enriched organoids [2]; Dose 0.08 uM, primary screen",−0.419
same,Dose.FC.LYZ.S (log 2 fold change),"ISC-enriched organoids [2]; Dose 0.40 uM, primary screen",−0.402
same,Dose.FC.LYZ.S (log 2 fold change),"ISC-enriched organoids [2]; Dose 2.00 uM, primary screen",−0.391
same,Dose.FC.LYZ.S (log 2 fold change),"ISC-enriched organoids [2]; Dose 10.00 uM, primary screen",−0.404
same,Z.CTG (standard z score),"ISC-enriched organoids [3]; Dose 0.08 uM, primary screen",−1.720
same,Dose.FC.CTG (log 2 fold change),"ISC-enriched organoids [3]; Dose 0.08 uM, primary screen",−0.720
same,Z.CTG (standard z score),"ISC-enriched organoids [3]; Dose 0.40 uM, primary screen",−2.606
same,Dose.FC.CTG (log 2 fold change),"ISC-enriched organoids [3]; Dose 0.40 uM, primary screen",−1.091
same,Z.CTG (standard z score),"ISC-enriched organoids [3]; Dose 2.00 uM, primary screen",−2.929
same,Dose.FC.CTG (log 2 fold change),"ISC-enriched organoids [3]; Dose 2.00 uM, primary screen",−1.226
same,Z.CTG (standard z score),"ISC-enriched organoids [3]; Dose 10.00 uM, primary screen",−2.785
same,Dose.FC.CTG (log 2 fold change),"ISC-enriched organoids [3]; Dose 10.00 uM, primary screen",−1.166
CN(C)C(=O)[C@H](O)[C@H](Cc1ccccc1)NC(=O)c1cc2cc(Cl)ccc2[nH]1 [CP-91149],Dose.FC.LYZ.NS,"ISC-enriched organoids [1]; Dose 0.08 uM, ENR+CD, 6 days",0.177 log 2 fold change
same,Z.LYZ.NS,ISC-enriched organoids [1]; [12],1.538
same,Dose.FC.LYZ.NS,"ISC-enriched organoids [1]; Dose 0.40 uM, ENR+CD, 6 days",−0.033 log 2 fold change
same,Z.LYZ.NS,ISC-enriched organoids [1]; [13],−0.289
same,Dose.FC.LYZ.NS,"ISC-enriched organoids [1]; Dose 2.00 uM, ENR+CD, 6 days",0.028 log 2 fold change
same,Z.LYZ.NS,ISC-enriched organoids [1]; [14],0.245
same,Dose.FC.LYZ.NS,"ISC-enriched organoids [1]; Dose 10.00 uM, ENR+CD, 6 days",−0.057 log 2 fold change
same,Z.LYZ.NS,ISC-enriched organoids [1]; [15],−0.498
same,Dose.FC.LYZ.S,"ISC-enriched organoids [2]; Dose 0.08 uM, ENR+CD, 6 days",0.186 log 2 fold change
same,Dose.FC.LYZ.S,"ISC-enriched organoids [2]; Dose 0.40 uM, ENR+CD, 6 days",0.055 log 2 fold change
same,Dose.FC.LYZ.S,"ISC-enriched organoids [2]; Dose 2.00 uM, ENR+CD, 6 days",−0.121 log 2 fold change
same,Dose.FC.LYZ.S,"ISC-enriched organoids [2]; Dose 10.00 uM, ENR+CD, 6 days",−0.097 log 2 fold change
same,Dose.FC.CTG,"ISC-enriched organoids [3]; Dose 0.08 uM, ENR+CD, 6 days",0.031 log 2 fold change
same,Z.CTG,ISC-enriched organoids [3]; [12],0.073
same,Dose.FC.CTG,"ISC-enriched organoids [3]; Dose 0.40 uM, ENR+CD, 6 days",−0.023 log 2 fold change
same,Z.CTG,ISC-enriched organoids [3]; [13],−0.056
same,Dose.FC.CTG,"ISC-enriched organoids [3]; Dose 2.00 uM, ENR+CD, 6 days",−0.098 log 2 fold change
same,Z.CTG,ISC-enriched organoids [3]; [14],−0.234
same,Dose.FC.CTG,"ISC-enriched organoids [3]; Dose 10.00 uM, ENR+CD, 6 days",−0.100 log 2 fold change
same,Z.CTG,ISC-enriched organoids [3]; [15],−0.239
